Data: PubChem BioAssay (NCI)
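Cultured in 96-well plates, cells were exposed to test compound for 48 hours across five concentrations. GI50 marks 50% less growth. TGI denotes the concentration required for complete inhibition of growth.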

What was measured:
Test in all cases: NCI anticancer screen, dose series, 48 h
SNB-75 CNS = test system: SNB-75 CNS
OVCAR-3 ovarian = test system: OVCAR-3 ovarian
U251 CNS = test system: U251 CNS
LOX IMVI melanoma = test system: LOX IMVI melanoma
OVCAR-8 ovarian = test system: OVCAR-8 ovarian
RPMI-8226 leukemia = test system: RPMI-8226 leukemia
RXF 393 renal = test system: RXF 393 renal
CCRF-CEM leukemia = test system: CCRF-CEM leukemia
EKVX NSCLC = test system: EKVX NSCLC
OVCAR-4 ovarian = test system: OVCAR-4 ovarian
HCT-116 colon = test system: HCT-116 colon
MALME-3M melanoma = test system: MALME-3M melanoma
SK-MEL-2 melanoma = test system: SK-MEL-2 melanoma
A549 NSCLC = test system: A549 NSCLC
HOP-92 NSCLC = test system: HOP-92 NSCLC
SK-MEL-5 melanoma = test system: SK-MEL-5 melanoma
HT29 colon = test system: HT29 colon
A498 renal = test system: A498 renal
786-0 renal = test system: 786-0 renal
SW-620 colon = test system: SW-620 colon
K-562 leukemia = test system: K-562 leukemia
CAKI-1 renal = test system: CAKI-1 renal
HOP-62 NSCLC = test system: HOP-62 NSCLC
NCI-H23 lung = test system: NCI-H23 lung
HCC-2998 colon = test system: HCC-2998 colon
MOLT-4 leukemia = test system: MOLT-4 leukemia
DU-145 prostate = test system: DU-145 prostate
UACC-257 melanoma = test system: UACC-257 melanoma
ACHN renal = test system: ACHN renal

Q: Which TGI (SNB-75 CNS) does the source give for `COC(=O)[C@]12CC[C@@H](C)[C@H](C)[C@@H]1C1=CC[C@@H]3[C@@]4(C)C(c5ncon5)=C[C@@](C)(CO)C4=CC[C@@]3(C)[C@]1(C)CC2` here?
A: Its TGI is 4.33 µM.

Q: What about the GI50 (OVCAR-3 ovarian) of the same molecule?
A: Its GI50 is 1.79 µM.

Q: What about the TGI (OVCAR-3 ovarian) of the same molecule?
A: The TGI was 3.25 µM.

Q: And the GI50 (U251 CNS)?
A: The GI50 was 2.02 µM.

Q: And the TGI (U251 CNS)?
A: The TGI was 3.84 µM.

Q: And the GI50 (LOX IMVI melanoma)?
A: Its GI50 is 1.62 µM.

Q: What about the TGI (LOX IMVI melanoma) of the same molecule?
A: The TGI was 2.97 µM.

Q: And the GI50 (OVCAR-8 ovarian)?
A: Its GI50 is 3.41 µM.

Q: And the TGI (OVCAR-8 ovarian)?
A: Its TGI is 10.2 µM.

Q: And the GI50 (RPMI-8226 leukemia)?
A: The GI50 was 2.32 µM.

Q: And the TGI (RPMI-8226 leukemia)?
A: Its TGI is 6.33 µM.

Q: What about the GI50 (RXF 393 renal) of the same molecule?
A: Its GI50 is 1.75 µM.

Q: And the TGI (RXF 393 renal)?
A: The TGI was 3.33 µM.

Q: What about the GI50 (CCRF-CEM leukemia) of the same molecule?
A: The GI50 was 1.89 µM.

Q: What about the TGI (CCRF-CEM leukemia) of the same molecule?
A: The TGI was 4.35 µM.

Q: And the GI50 (EKVX NSCLC)?
A: The GI50 was 2.02 µM.

Q: What about the TGI (EKVX NSCLC) of the same molecule?
A: Its TGI is 4.37 µM.

Q: And the GI50 (OVCAR-4 ovarian)?
A: The GI50 was 3.1 µM.

Q: What about the TGI (OVCAR-4 ovarian) of the same molecule?
A: Its TGI is 11.8 µM.

Q: And the GI50 (HCT-116 colon)?
A: Its GI50 is 1.68 µM.

Q: And the TGI (HCT-116 colon)?
A: The TGI was 3.2 µM.

Q: And the GI50 (MALME-3M melanoma)?
A: The GI50 was 1.67 µM.

Q: What about the TGI (MALME-3M melanoma) of the same molecule?
A: Its TGI is 3.55 µM.

Q: What about the GI50 (SK-MEL-2 melanoma) of the same molecule?
A: Its GI50 is 2.05 µM.

Q: And the TGI (SK-MEL-2 melanoma)?
A: The TGI was 4.22 µM.

Q: And the GI50 (A549 NSCLC)?
A: Its GI50 is 4.48 µM.

Q: And the TGI (A549 NSCLC)?
A: Its TGI is 15.5 µM.

Q: And the GI50 (HOP-92 NSCLC)?
A: The GI50 was 1.98 µM.

Q: What about the TGI (HOP-92 NSCLC) of the same molecule?
A: The TGI was 4.04 µM.

Q: And the GI50 (SK-MEL-5 melanoma)?
A: Its GI50 is 1.88 µM.

Q: And the TGI (SK-MEL-5 melanoma)?
A: The TGI was 3.41 µM.

Q: And the GI50 (HT29 colon)?
A: Its GI50 is 1.94 µM.

Q: What about the TGI (HT29 colon) of the same molecule?
A: The TGI was 3.88 µM.

Q: What about the GI50 (A498 renal) of the same molecule?
A: Its GI50 is 1.69 µM.

Q: And the TGI (A498 renal)?
A: The TGI was 3.42 µM.

Q: And the GI50 (786-0 renal)?
A: Its GI50 is 2.91 µM.

Q: And the TGI (786-0 renal)?
A: Its TGI is 8.58 µM.

Q: And the GI50 (SW-620 colon)?
A: The GI50 was 1.96 µM.

Q: What about the TGI (SW-620 colon) of the same molecule?
A: Its TGI is 3.85 µM.

Q: And the GI50 (K-562 leukemia)?
A: The GI50 was 2.22 µM.

Q: And the TGI (K-562 leukemia)?
A: Its TGI is 4.82 µM.

Q: And the GI50 (CAKI-1 renal)?
A: Its GI50 is 4.06 µM.

Q: What about the TGI (CAKI-1 renal) of the same molecule?
A: The TGI was 26 µM.

Q: And the GI50 (HOP-62 NSCLC)?
A: Its GI50 is 2.42 µM.

Q: And the TGI (HOP-62 NSCLC)?
A: The TGI was 5.08 µM.

Q: And the GI50 (NCI-H23 lung)?
A: The GI50 was 2.01 µM.

Q: And the TGI (NCI-H23 lung)?
A: The TGI was 4.52 µM.

Q: What about the GI50 (HCC-2998 colon) of the same molecule?
A: The GI50 was 2.14 µM.

Q: And the TGI (HCC-2998 colon)?
A: The TGI was 3.79 µM.

Q: And the GI50 (MOLT-4 leukemia)?
A: Its GI50 is 1.69 µM.

Q: What about the TGI (MOLT-4 leukemia) of the same molecule?
A: Its TGI is 3.92 µM.

Q: And the GI50 (DU-145 prostate)?
A: The GI50 was 1.77 µM.

Q: What about the TGI (DU-145 prostate) of the same molecule?
A: The TGI was 3.26 µM.

Q: What about the GI50 (UACC-257 melanoma) of the same molecule?
A: Its GI50 is 2.1 µM.

Q: And the TGI (UACC-257 melanoma)?
A: The TGI was 4.34 µM.

Q: What about the GI50 (ACHN renal) of the same molecule?
A: The GI50 was 1.9 µM.

Q: And the TGI (ACHN renal)?
A: The TGI was 3.56 µM.
